Results on 14 compounds are retold here after ChEMBL document CHEMBL5584329, “Development of new dehydrocostuslactone derivatives for treatment of atopic dermatitis via inhibition of the NF-κB signaling pathway” (RSC Med Chem, 2024).

In data set [1] the test system is RAW264.7. As to the kind of experiment: Inhibition of LPS-induced NO production in mouse RAW264.7 cells preincubated for 2 hrs followed by LPS addition and measured after 24 hrs by Griess assay relative to control. Format: functional, cell-based.
Data set [2] is described as follows: Cytotoxicity against mouse RAW264.7 cells assessed as inhibition of cell viability by MTT assay relative to control. Format: toxicity, cell-based.
Data set [3] has as its system RAW264.7. As to the kind of experiment: Inhibition of LPS-induced NO production in mouse RAW264.7 cells at 20 uM preincubated for 2 hrs followed by LPS addition and measured after 24 hrs by Griess assay relative to control. It counts as functional. The conditions noted are these: time 26 hrs.
Data set [4] in a line: Cytotoxicity against mouse RAW264.7 cells assessed as inhibition of cell viability at 20 uM by MTT assay relative to control. It counts as toxicity, cell-based. To be noted: read-out: INH.
Data set [5] concerns Mus musculus. As to the kind of experiment: Antiinflammatory activity against MC093-induced atopic dermatitis BALB/c mouse model assessed as reduction in epidermal thickness of ear administered starting from day 4 to 10 after MC093-stimulation by H and E staining assay. Format: functional, organism-based.
Data set [6] relates to Mus musculus. As to the kind of experiment: Antiinflammatory activity against MC093-induced atopic dermatitis BALB/c mouse model assessed as reduction in inflammatory cell infiltration in ear administered starting from day 4 to 10 after MC093-stimulation by H and E staining assay. It counts as functional, organism-based.

The source made the active and inactive calls. The rule behind the calls is not given here. Some results are limits rather than exact numbers.

`C=C1CC[C@H]2C(=C)CC[C@H]3C(CN(CCNS(=O)(=O)c4ccc5ccccc5c4)S(=O)(=O)c4ccc5ccccc5c4)C(=O)O[C@@H]3[C@@H]12` (stereo not given in full): the 50% inhibitory concentration (IC50) with RAW264.7 [1] is 16.6 µM; in data set [2] it was > 40 µM. In addition, the inhibition at 20 µM with RAW264.7 [3] worked out at 76.8%. The cytotoxicity at 20 µM in data set [4] was 8.58%.

In the case of `C=C1CC[C@H]2C(=C)CC[C@H]3C(CN(CCNS(=O)(=O)c4cccc(Cl)c4F)S(=O)(=O)c4cccc(Cl)c4F)C(=O)O[C@@H]3[C@@H]12` (stereo not given in full), in the data set on RAW264.7 [3], the inhibition at 20 µM worked out at 48.1%. In addition, in data set [4], the cytotoxicity at 20 µM worked out at 1.67%.

With `C=C1CC[C@H]2C(=C)CC[C@H]3C(=C)C(=O)O[C@@H]3[C@@H]12` [DEHYDROCOSTUSLACTONE], the half-inhibitory concentration (IC50) was 21.5 µM with RAW264.7 [1] and > 40 µM in data set [2]. Moreover, testing at 20 µM with RAW264.7 [3] gave an inhibition of 40.3%. Moreover, in data set [4], the cytotoxicity at 20 µM was 17.3%.

On to `C[C@@H]1C[C@H]2[C@@H]3CCC4=CC(=O)C=C[C@]4(C)[C@@]3(F)[C@@H](O)C[C@]2(C)[C@@]1(O)C(=O)CO` [DEXAMETHASONE], for which the IC50 in the data set with RAW264.7 [1] is 11 µM; in data set [2], > 40 µM. For the same compound, the outcome in the data set on Mus musculus [5] and in the data set on Mus musculus [6] was Active.

Consider `C=C1CC[C@H]2C(=C)CC[C@H]3C(CN(CCNS(=O)(=O)c4ccc(C)cc4)S(=O)(=O)c4ccc(C)cc4)C(=O)O[C@@H]3[C@@H]12` (stereo not given in full), for which the IC50 in the data set with RAW264.7 [1] was 7.72 µM; in data set [2], > 40 µM. At 20 µM the inhibition in the data set with RAW264.7 [3] was 82.5%. For the same compound, the cytotoxicity at 20 µM in data set [4] came out at 14.8%.

In the case of `C=C1CC[C@H]2C(=C)CC[C@H]3C(CNCCNCc4cc(Cl)cc(Cl)c4O)C(=O)O[C@@H]3[C@@H]12` (stereo not given in full), the IC50 in the data set on RAW264.7 [1] was 19.4 µM; in data set [2], > 40 µM. This compound also returned an inhibition at 20 µM in the data set with RAW264.7 [3] of 51.5%. Moreover, the cytotoxicity at 20 µM in data set [4] worked out at 8.94%.

In the case of `C=C1CC[C@H]2C(=C)CC[C@H]3C(CN(CCNS(=O)(=O)c4ccc(OC(F)(F)F)cc4)S(=O)(=O)c4ccc(OC(F)(F)F)cc4)C(=O)O[C@@H]3[C@@H]12` (stereo not given in full), the half-inhibitory concentration (IC50) was 4.26 µM with RAW264.7 [1] and > 40 µM in data set [2]. In the data set with RAW264.7 [3], this compound displayed an inhibition at 20 µM of 84%. Further, the cytotoxicity at 20 µM in data set [4] worked out at 13.6%.

For `C=C1CC[C@H]2C(=C)CC[C@H]3C(CNCCNS(=O)(=O)C4CC4)C(=O)O[C@@H]3[C@@H]12` (stereo not given in full), the half-maximal inhibitory concentration (IC50) was 5.13 µM in the data set with RAW264.7 [1] and > 40 µM in data set [2]. The compound further yielded an inhibition at 20 µM in the data set with RAW264.7 [3] of 85.4%. The cytotoxicity at 20 µM in data set [4] was found to be 12.2%.

For `C=C1CC[C@H]2C(=C)CC[C@H]3C(CNCCNCc4cc(Br)ccc4O)C(=O)O[C@@H]3[C@@H]12` (stereo not given in full), in the data set on RAW264.7 [3], the inhibition at 20 µM came to 23.5%. For the same compound, in data set [4], the cytotoxicity at 20 µM is -2.07%.

`C=C1CC[C@H]2C(=C)CC[C@H]3C(CN(CCNS(=O)(=O)c4ccc(F)cc4)S(=O)(=O)c4ccc(F)cc4)C(=O)O[C@@H]3[C@@H]12` (stereo not given in full): the IC50 with RAW264.7 [1] is 15.2 µM; in data set [2] it was > 40 µM. The compound also displayed an inhibition at 20 µM with RAW264.7 [3] of 75.1%. Moreover, the cytotoxicity at 20 µM in data set [4] turned out to be 9.81%.

For `C=C1CC[C@H]2C(=C)CC[C@H]3C(CNCCNCc4cc([N+](=O)[O-])ccc4O)C(=O)O[C@@H]3[C@@H]12` (stereo not given in full), the IC50 in the data set with RAW264.7 [1] was 10.2 µM; in data set [2], > 40 µM. In the data set with RAW264.7 [3], this compound returned an inhibition at 20 µM of 68.4%. Moreover, the cytotoxicity at 20 µM in data set [4] is 24.7%.

Take `C=C1CC[C@H]2C(=C)CC[C@H]3C(CNCCNCc4cc(Cl)ccc4O)C(=O)O[C@@H]3[C@@H]12` (stereo not given in full): in the data set on RAW264.7 [3], the inhibition at 20 µM amounted to 34.1%. Also, the cytotoxicity at 20 µM in data set [4] was 16.7%.

As to `C=C1CC[C@H]2C(=C)CC[C@H]3C(CN(CCNS(=O)(=O)c4ccc(C(C)(C)C)cc4)S(=O)(=O)c4ccc(C(C)(C)C)cc4)C(=O)O[C@@H]3[C@@H]12` (stereo not given in full), the results for the 50% inhibitory concentration (IC50) (with RAW264.7 [1]; in data set [2]) were 6.31 µM and > 40 µM, respectively. Moreover, the inhibition at 20 µM in the data set with RAW264.7 [3] turned out to be 81.2%. Moreover, the cytotoxicity at 20 µM in data set [4] is 9.88%.

Take `C=C1CC[C@H]2C(=C)CC[C@H]3C(CN(CCNS(=O)(=O)c4cc(Cl)c(F)cc4F)S(=O)(=O)c4cc(Cl)c(F)cc4F)C(=O)O[C@@H]3[C@@H]12` (stereo not given in full): the IC50 in the data set on RAW264.7 [1] was 12.9 µM; in data set [2], > 40 µM. In the data set on RAW264.7 [3], this compound gave an inhibition at 20 µM of 68.1%. For the same compound, the cytotoxicity at 20 µM in data set [4] was found to be 10.4%.
